Reference: PubChem BioAssay (NCI)
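1) Cells in 96-well plates. 2) Compound, 48 h, 5 concentrations. 3) Linear interpolation between surrounding doses. 4) Unreached endpoint = highest concentration. GI50 is the concentration that inhibits growth by half. TGI: total growth inhibition.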

Columns and labels:
Assay in all cases: NCI tumour cell line growth inhibition, 48 h
[1] = test system: DU-145 prostate
[2] = test system: MCF7 breast
[3] = test system: NCI/ADR-RES ovarian
[4] = test system: PC-3 prostate
[5] = test system: DMS 114 small cell lung
[6] = test system: M19-MEL melanoma
[7] = test system: LXFL 529 NSCLC
[8] = test system: SNB-78 CNS

| Structure (SMILES) | GI50 [1] [µM] | TGI [1] [µM] | GI50 [2] [µM] | TGI [2] [µM] | GI50 [3] [µM] | TGI [3] [µM] | GI50 [4] [µM] | TGI [4] [µM] | TGI [5] [µM] | TGI [6] [µM] | TGI [7] [µM] | TGI [8] [µM] |
| --- | --- | --- | --- | --- | --- | --- | --- | --- | --- | --- | --- | --- |
| CC(C)CC(=O)Nc1n[nH]c2c1CN(C(=O)C1CCN(C)CC1)C2(C)C | 1.6 | > 10 | 0.191 | > 10 | > 10 | > 10 | 1.33 | > 10 | – | – | – | – |
| CN(C)C/C=C/C(=O)Nc1cc2c(Nc3ccc(F)c(Cl)c3F)ncnc2cc1OCCOC(F)F | 0.191 | 3.34 | 1.24 | 10.1 | 0.499 | 3.74 | 1.9 | 9.09 | – | – | – | – |
| COc1ccc(/C=C2\CC(C)CC3C2=NN(C(C)=O)C3c2ccc(OC)cc2)cc1 (stereo not given) | 25.7 | 78.1 | 20 | 63.3 | 21.3 | 73.2 | 24.2 | > 100 | – | – | – | – |
| O=Cc1ccc(-c2ccc(-c3nc4ccccc4o3)cc2)s1 | 26.3 | > 100 | – | – | 27.2 | 79.4 | > 100 | > 100 | – | – | – | – |
| CN1CCN(c2cc(C(=O)Nc3cc4cc(-c5cnn(C)c5)ccc4cn3)ccn2)CC1 | 0.0971 | 11.4 | 0.0911 | 0.399 | 0.246 | 76.4 | 0.314 | 31.4 | – | – | – | – |
| COc1ccc(-c2nc(C(=O)c3ccccc3)n(CC(=O)c3ccccc3)c2-c2ccc(OC)cc2)cc1 | > 100 | > 100 | > 100 | > 100 | > 100 | > 100 | > 100 | > 100 | – | – | – | – |
| CC(=O)N1c2ccccc2NC2=C(C(=O)N(Cc3ccccc3)C2(C)C)C1c1ccco1 (stereo not given) | 0.115 | > 25 | 0.368 | > 25 | > 21.6 | > 25 | 0.687 | > 25 | – | – | – | – |
| COc1ccc(Cc2cc3c(cc2OCC(=O)O)OCO3)cc1 | – | – | – | – | – | – | – | – | > 100 | > 100 | – | – |
| C[C@@H]1Cc2c([nH]c3ccccc23)[C@@H](c2c(F)cc(NC3CN(CCCF)C3)cc2F)N1CC(F)(F)CO | 6.52 | 20.2 | – | 4.27 | 4.1 | 16.6 | 2.35 | 9.67 | – | – | – | – |
| COC(=O)c1c(O)c([N+](=O)[O-])cc2c1c1c(n2Cc2ccccc2)C(=O)c2ccccc2C1=O | 14.3 | 27.6 | 5.86 | 46.1 | 21.1 | 68.5 | 15.4 | 53.9 | – | – | – | – |
| O=C(/C=N/O)Nc1cc(Cl)c(Cl)cc1Cl | – | > 100 | – | > 100 | – | > 100 | – | > 100 | – | – | – | – |
| CN(C)CCSc1cccc(-c2cc(-c3cccc(SCCN(C)C)c3)nc(SCCN(C)C)n2)c1 | – | – | – | – | – | – | – | – | – | – | 3.89 | 6.25 |
| CN(C)c1ncc(-c2ccc(C(F)(F)F)cc2)c(NC2CCCCCC2)n1 | 27.1 | > 100 | 11.4 | 24.9 | 22.2 | 80.6 | 20.2 | 87.1 | – | – | – | – |
